# Source: patent US4456614A, “3-Amino-1-[(1,4-benzodioxan)-2-yl-methoxy]-2-propanols, pharmaceutical compositions thereof, and their use as medicaments” (Pierre Fabre S.A., priority 1980, dated 1984)
# Structures can show the parent of a compound that is named as a salt.
# Experiments:
# [1] = test system: isolated atrium (rabbit right atrium); assay: Effect on the frequency of spontaneous flutterings of the isolated atrium; details: for inhibition at 10 µg/mL: Oryctolagus cuniculus, 0.4 h, after 24 minutes, 1 mg (per 100 ml), read-out: Percentage of reduction of the frequency
# Description: (c) Effect on the frequency of spontaneous flutterings of the isolated atrium. Method: Rabbit right atrium in survival in a Ringer-Locke's solution. The substances to be studied are introduced into the tank (at the rate of 0.5 and 1 mg per 100 ml) and remain in contact with the myocardial tissue for 24 minutes.
# [2] = test system: auricular tachycardia produced by aconitine; assay: Auricular tachycardia produced by aconitine in dogs; type: in vivo; details: 5 mg/kg
# Description: (b) Influence on an auricular tachycardia produced by aconitine.
# Method: (D. SCHERF--Proc. Soc. exp. Biol., 1947, 64, 233). A tachycardia is caused in dogs by intramural injection of aconitine in the right atrium near the sinusoidal node.
# The rhythm is increased in proportions of 80 to 100%. The auriculo-ventricular tracks show normal permeability, the ventricles are driven at the same frequency.
# [3] = test system: toxicity to yohimbine; assay: Anti-depressant properties (potentialization of yohimbine toxicity in mice); type: in vivo
# Description: Anti-depressant properties (W. J. LANG and S. GORSHORN Arch. Int. Pharmacodyn., 142, 457, 1963).
# [4] = test system: Local anesthesia; assay: Local anesthesia (test of J. Regnier); type: in vivo; details: 1% solution
# Description: Local anesthesia: test of J. Regnier--Doctoral Dissertation, Med., 203 pages, Bruilliard St Dizier, 1929.
# [5] = Solubility in water; type: physicochemical
# [6] = test system: adrenergic receptors; assay: Inhibitory property of the adrenergic receptors (isoprenaline tachycardia in dogs); type: in vivo
# Description: (2) Search for an inhibitory property of the adrenergic receptors
# Method: Isoprenaline tachycardia in dogs. Simultaneous recording of the heart rate and of the arterial pressure.
# [7] = test system: ventricular tachycardia of digitalic origin; assay: Ventricular tachycardia of digitalic origin (ouabain) in anesthetized dogs; type: in vivo; details: doses of 2 and 5 mg/kg
# Description: (a) Action with respect to ventricular tachycardia of digitalic origin (LUCHESI and HARDMAN--J. Pharmacol. exp. Ther., 1961, No. 132, pages 372 to 81).
# Method: Creation of a stable ventricular tachycardia in ten dogs (anesthetized) by successive intravenous injections of ouabain.
# [8] = test system: isolated rabbit atrium; assay: Activity on the electrosystolic entrainment of the isolated rabbit atrium; details: isolated rabbit right atrium, Ringer-Locke's solution
# Description: (d) Activity on the electrosystolic entrainment of the isolated rabbit atrium (G. S. DAWES--Pharmacol. Rev., 4, 43-84, 1952).
# Method: Rabbit right atrium in a Ringer-Locke's solution.
# After determination of the threshold voltage for the entrainment of the muscle, the latter is subjected to frequencies which increase in successive steps until obtaining a maximum frequency for which the tissue is incapable of responding to the stimuli.
# The product is added to the bath. Three electric entrainments are effected in the following 25 minutes. The experiment is then continued for one hour after the rinsing of the tank.
# [9] = test system: central nervous system; assay: Potentialization of the barbiturate and chloralhydrate anesthesia in mice; type: in vivo; details: 100 mg/kg
# Description: Potentialization of the barbiturate and chloralhydrate anesthesia in mice.
# [10] = test system: toxicity of pentetrazole; assay: Anticonvulsant property (pentetrazole toxicity in mice); type: in vivo; details: orally, 100 mg/kg, pentetrazole subcutaneously
# Description: Anticonvulsant property (G. CHEN and R. PORTMAN, A.M.A. Arch. Neurol. Psychiat., 68, 498, 1952).
# [11] = test system: Urinary excretion; assay: Diuretic effect in rats (Lipschitz); type: in vivo; details: 100 mg/kg orally
# Description: Diuretic effect (W. LIPSCHITZ J. Pharmacol. Exp. Ther., 79, 97, 1943) in rats.
# [12] = test system: cardiovascular system; assay: Systemic effects in dogs; type: in vivo; details: 1, 2 and 5 mg/kg
# Description: (3) Systemic effects in dogs
# Doses used: 1, 2 and 5 mg/kg
# left intraventricular pressure
compound,measurement,setting,value
"CCC1CN2CCC1CC2[C@@H](O)c1ccnc2ccc(OC)cc12 (stereo partly shown) [Dihydroquinidine, reference compound]",inhibition at 10 µg/mL,[1],35%
"CC(C)(C)NCC(O)COCC1COc2ccccc2O1 (stereo not shown) [Example 1, 3-tertiobutylamino-1-[(1,4-benzodioxan)-2-ylmethoxy]-2-propanol maleate]",% reduction of auricular tachycardia,[2],60%
same,effect on auricular tachycardia,[2],reduces auricular tachycardia substantially and lastingly
same,persistence of the effect after injection,[2],30 min
same,potentialization of toxicity to yohimbine,[3],No potentialization of toxicity to yohimbine
same,local anesthetic properties compared with Lidocaine,[4],local anesthetic properties superior to Lidocaine
same,solubility,[5],100 mg/mL
same,beta-blocking effect,[6]; 5 mg/kg,substantial
same,cardioselectivity,[6]; 5 mg/kg,cardioselectivity is noted
same,reduction of isoprenaline tachycardia,[6]; from 1 mg/kg intravenously,significantly reduces the isoprenaline tachycardia starting with a dose of 1 mg/kg intravenously
same,opposition of ectopic rhythm,"[7]; ten dogs, ouabain",opposes ectopic rhythm in all the animals
same,period of activity,[7]; in 80% of the cases,more than 30 minutes
same,functional refractory period of the isolated atrium,[8],extends the functional refractory period of the isolated atrium in the same way as dihydroquinidine
same,Potentialization of the barbiturate and chloralhydrate anesthesia,[9],nothing to report
same,protection from toxicity of pentetrazole,[10],does not protect mice from toxicity of pentetrazole
same,inhibition at 10 µg/mL,[1],16%
same,chronotropic effect compared with dihydroquinidine,"[1]; isolated rabbit right atrium, Ringer-Locke's solution",definitely a less negative chronotropic effect than dihydroquinidine
same,diuretic power,[11],does not have any diuretic power
same,Urinary excretion,[11]; Control 28%,35%
same,force of cardiac contraction,[12],decreases the force of cardiac contraction
same,impact on the cardiovascular system,[12],little impact on the cardiovascular system
same,peripheral resistances,[12],decreases the force of cardiac contraction and the peripheral resistances
